Read-outs that look alike come from different tables or passages of the source.
Key:
M9ENL AML cell lines [1] = assay: cells; settings: Table 5; cell line not given
M9ENL AML cell lines [2] = settings: for EC50: Table 5, cell line not given; for CC50: read-out: LC50, M9ENL AML cell lines, after 24 hours of drug exposure; for potency relative to parthenolide and MMB: M9 ENL cell lines
AML cell line AML 123009 = settings: for cytotoxicity relative to PTL: AML 123009, FIG. 6; for EC50: read-out: Viability EC50, AML cell line 123009

For `CN(C)CC1C(=O)O[C@H]2[C@H]1CC/C(COC(=O)NCCCCCCCCNC(=O)OC/C1=C/CC[C@@]3(C)O[C@H]3[C@H]3OC(=O)C(CN(C)C)[C@@H]3CC1)=C\CC[C@@]1(C)O[C@@H]21` (single isomer, unassigned) [JVM 3-62A], which EC50 (M9ENL AML cell lines [1]) is on record?
The EC50 was 1.3 µM.

`CN(C)CC1C(=O)O[C@H]2[C@H]1CC/C(COC(=O)NCCCCCCCCNC(=O)OC/C1=C/CC[C@@]3(C)O[C@H]3[C@H]3OC(=O)C(CN(C)C)[C@@H]3CC1)=C\CC[C@@]1(C)O[C@@H]21` (single isomer, unassigned) [JVM 3-62B] was tested. Which EC50 (M9ENL AML cell lines [2]) did it give?
The EC50 was 1.2 µM.

`C=C1C(=O)O[C@H]2[C@H]1CC/C(COC(=O)OCCC(CCOC(=O)OC/C1=C/CC[C@@]3(C)O[C@H]3[C@H]3OC(=O)C(=C)[C@@H]3CC1)O[Si](C)(C)C(C)(C)C)=C\CC[C@@]1(C)O[C@@H]21` (stereo partly drawn) [BS-3-14] was tested. Which EC50 (M9ENL AML cell lines [1]) did it give?
Its EC50 is 1.11 µM.

With `C=C1C(=O)O[C@H]2[C@H]1CC/C(COC(=O)NCCC(O)CCNC(=O)OC/C1=C/CC[C@@]3(C)O[C@H]3[C@H]3OC(=O)C(=C)[C@@H]3CC1)=C\CC[C@@]1(C)O[C@@H]21` (stereo partly drawn) [BS-3-24] as the molecule, how does the EC50 (M9ENL AML cell lines [1]) read?
The EC50 was 9.03 µM.

Which EC50 (M9ENL AML cell lines [1]) does the source give for `C=C1C(=O)O[C@H]2[C@H]1CC/C(COC(=O)OCCC(CCOC(=O)OC/C1=C/CC[C@@]3(C)O[C@H]3[C@H]3OC(=O)C(=C)[C@@H]3CC1)OCCCCCCCCCCn1cc(CNC(=O)CCCCC3SCC4NC(=O)NC43)nn1)=C\CC[C@@]1(C)O[C@@H]21` (stereo partly drawn) [BS-4-38a] here?
The EC50 was 20 µM.

How did the EC50 (M9ENL AML cell lines [1]) turn out when `C=C1C(=O)O[C@H]2[C@H]1CC/C(COC(=O)OCCC(CCO)OCCCCCCCCCCn1cc(CNC(=O)CCCCC3SCC4NC(=O)NC43)nn1)=C\CC[C@@]1(C)O[C@@H]21` (stereo partly drawn) [BS-4-38b] was run?
The EC50 was 30 µM.

For `CN(C)CC1C(=O)O[C@H]2[C@H]1CC/C(COC(=O)OC/C1=C/CC[C@@]3(C)O[C@H]3[C@H]3OC(=O)C(CN(C)C)[C@@H]3CC1)=C\CC[C@@]1(C)O[C@@H]21` (stereo partly drawn) [JVM 3-55 B], which EC50 (M9ENL AML cell lines [1]) is on record?
Its EC50 is 5.1 µM.

Which CC50 (M9ENL AML cell lines [2]) does the source give for `C=C1C(=O)OC2C1CCC(COC(=O)NCCCNC(=O)OCC1=CCCC3(C)OC3C3OC(=O)C(=C)C3CC1)=CCCC1(C)OC21` [JVM 3-55, bis(((1aR,7aS,10aS,10bS,E)-1a-Methyl-8-methylene-9-oxo-1a,2,3,6,7,7a,8,9,10a,10b-decahydrooxireno[2′,3′:9,10]cyclodeca[1,2-b]furan-5-yl)methyl)propane-1,3-diyldicarbamate] here?
The CC50 was 0.56 µM.

`C=C1C(=O)OC2C1CCC(COC(=O)NCCCCCCCNC(=O)OCC1=CCCC3(C)OC3C3OC(=O)C(=C)C3CC1)=CCCC1(C)OC21` [JVM 3-58, bis(((1aR,7aS, 10aS, 10bS, E)-1a-Methyl-8-methylene-9-oxo-1a,2,3,6,7,7a,8,9,10a,10b-decahydrooxireno[2′,3′:9,10]cyclodeca[1,2-b]furan-5-yl)methyl)heptane-1,7-diyldicarbamate] was tested. Which CC50 (M9ENL AML cell lines [2]) did it give?
The CC50 was 1.2 µM.

With `C=C1C(=O)OC2C1CCC(COC(=O)NCCCCCCCCCNC(=O)OCC1=CCCC3(C)OC3C3OC(=O)C(=C)C3CC1)=CCCC1(C)OC21` [JVM 3-61, bis(((1aR,7aS, 10aS, 10bS, E)-1a-Methyl-8-methylene-9-oxo-1a,2,3,6,7,7a,8,9,10a, 1b-decahydrooxireno[2′,3′:9,10]cyclodeca[1,2-b]furan-5-yl)methyl)nonane-1,9-diyldicarbamate] as the molecule, how does the CC50 (M9ENL AML cell lines [2]) read?
Its CC50 is 1.8 µM.

How did the EC50 (M9ENL AML cell lines [1]) turn out when `C=C1C(=O)O[C@H]2[C@H]1CC/C(COC(=O)NCCCCCCCCNCC1C(=O)O[C@H]3[C@H]1CC/C(COC(=O)NCCCCCCCCNC(=O)OC/C1=C/CC[C@@]4(C)O[C@H]4[C@H]4OC(=O)[C@@H](CNCCCCCCCCNC(=O)OC/C5=C/CC[C@@]6(C)O[C@H]6[C@H]6OC(=O)C(=C)[C@@H]6CC5)[C@@H]4CC1)=C\CC[C@@]1(C)O[C@@H]31)=C\CC[C@@]1(C)O[C@@H]21` (stereo partly drawn) [JVM 3-62-1] was run?
Its EC50 is 1.7 µM.

How did the EC50 (M9ENL AML cell lines [1]) turn out when `C[C@@]12CC/C=C3\CC[C@@H]4[C@H](OC(=O)[C@H]4CNCCCCCCCCNC[C@@H]4C(=O)O[C@H]5[C@H]4CC/C(=C\CC[C@@]4(C)O[C@@H]54)COC(=O)NCCCCCCCCNC(=O)OC3)[C@@H]1O2` [JVM 3-62-2] was run?
Its EC50 is 38.1 µM.

Which CC50 (M9ENL AML cell lines [2]) does the source give for `C=C1C(=O)OC2C1CCC(COC(=O)NCCCCCCNC(=O)OCC1=CCCC3(C)OC3C3OC(=O)C(=C)C3CC1)=CCCC1(C)OC21` [JVM 3-64, bis(((1aR,7aS,10aS,10bS,E)-1a-Methyl-8-methylene-9-oxo-1a,2,3,6,7,7a,8,9,10a,10b-decahydrooxireno[2′,3′:9,10]cyclodeca[1,2-b]furan-5-yl)methyl)hexane-1,6-diyldicarbamate] here?
The CC50 was 0.34 µM.

For `C=C1C(=O)O[C@H]2[C@H]1CC/C(COC(=O)NCCCCCCCCCCNC(=O)OC/C1=C/CC[C@@]3(C)O[C@H]3[C@H]3OC(=O)C(=C)[C@@H]3CC1)=C\CC[C@@]1(C)O[C@@H]21` [JVM 3-65, bis(((1aR,7aS,10aS, 10bS,E)-1a-Methyl-8-methylene-9-oxo-1a,2,3,6,7,7a,8,9,10a,10b-decahydrooxireno[2,3′:9,10]cyclodeca[1,2-b]furan-5-yl)methyl)decane-1,10-diyldicarbamate], which CC50 (M9ENL AML cell lines [2]) is on record?
The CC50 was 1.6 µM.

`C=C1C(=O)OC2C1CCC(C(=O)NCCCCCCCCNC(=O)C1=CCCC3(C)OC3C3OC(=O)C(=C)C3CC1)=CCCC1(C)OC21` [JVM 3-78, (1aR,1a′R,4E,4′E,7aS,7a′S, 10aS, 10bS, 10a′S, 10b′S)—N,N′-(octane-1,8-diyl)bis(1a-methyl-8-methylene-9-oxo-1a,2,3,6,7,7a,8,9,10a,10b-decahydrooxireno[2′,3′:9,10]cyclodeca[1,2-b]furan-5-carboxamide)] was tested. Which “potency relative to parthenolide and MMB” value (M9ENL AML cell lines [2]) did it give?
Its value is “more potency than parthenolide and MMB”.

`C=C1C(=O)OC2C1CCC(C(=O)NCCCCCCCCCNC(=O)C1=CCCC3(C)OC3C3OC(=O)C(=C)C3CC1)=CCCC1(C)OC21` [JVM 3-82, (1aR,1a′R,4E,4′E,7aS,7a′S,10aS,10bS,10a′S,10b′S)—N,N′-(nonane-1,9-diyl)bis(1a-methyl-8-methylene-9-oxo-1a,2,3,6,7,7a,8,9,10a,10b-decahydrooxireno[2 ′,3 ′9,10]cyclodeca[1,2-b]furan-5-carboxamide)] was tested. Which “potency relative to parthenolide and MMB” value (M9ENL AML cell lines [2]) did it give?
The value was “more potency than parthenolide and MMB”.

What does the source list for `C=C1C(=O)O[C@H]2[C@H]1CC/C(C(=O)NCCCCCCCCCCNC(=O)/C1=C/CC[C@@]3(C)O[C@H]3[C@H]3OC(=O)C(=C)[C@@H]3CC1)=C\CC[C@@]1(C)O[C@@H]21` [JVM 3-83, (1aR,1a′R,4E,4′E,7aS,7a′S,10aS, 10bS, 10a′S, 10b′S)—N,N′-(decane-1,10-diyl)bis(1a-methyl-8-methylene-9-oxo-1a,2,3,6,7,7a,8,9,10a,10b-decahydrooxireno[2′,3′:9,10]cyclodeca[1,2-b]furan-5-carboxamide)]?
potency relative to parthenolide and MMB (M9ENL AML cell lines [2]): more potency than parthenolide and MMB; EC50 (M9ENL AML cell lines [2]): 2.8 µM; cytotoxicity relative to PTL (AML cell line AML 123009): enhanced cytotoxicity relative to PTL; EC50 (AML cell line AML 123009): 2.8 µM

With `C=C1C(=O)OC2C1CCC(C(=O)NCCCCCCCNC(=O)C1=CCCC3(C)OC3C3OC(=O)C(=C)C3CC1)=CCCC1(C)OC21` [JVM 3-84, (1aR,1a′R,4E,4′E,7aS,7a′S,10aS,10bS,10a′S,10b′S)—N,N′-(heptane-1,7-diyl)bis(1a-methyl-8-methylene-9-oxo-1a,2,3,6,7,7a,8,9,10a,10b-decahydrooxireno[2′,3′:9,10]cyclodeca[1,2-b]furan-5-carboxamide)] as the molecule, how does the “potency relative to parthenolide and MMB” value (M9ENL AML cell lines [2]) read?
The value was “more potency than parthenolide and MMB”.

Which EC50 (M9ENL AML cell lines [2]) does the source give for `C=C1C(=O)OC2C1CCC(COC(=O)OCCCCOC(=O)OCC1=CCCC3(C)OC3C3OC(=O)C(=C)C3CC1)=CCCC1(C)OC21` [JVM 3-91A, butane-1,4-diylbis(((1aR,7aS,10aS,10bS,E)-1a-methyl-8-methylene-9-oxo-1a,2,3,6,7,7a, 8,9,10a,10b-decahydrooxireno[2′,3′:9,10]cyclodeca[1,2-b]furan-5-yl)methyl)dicarbonate] here?
The EC50 was 0.93 µM.

And the “cytotoxicity relative to PTL” value (AML cell line AML 123009)?
The value was “enhanced cytotoxicity relative to PTL”.

What about the EC50 (AML cell line AML 123009) of the same molecule?
The EC50 was 0.93 µM.

For `C=C1C(=O)O[C@H]2[C@H]1CC/C(COC(=O)CC(=O)OC/C1=C/CC[C@@]3(C)O[C@H]3[C@H]3OC(=O)C(=C)[C@@H]3CC1)=C\CC[C@@]1(C)O[C@@H]21` [JVM 3-99, bis(((1aR,7aS,10aS,10bS,E)-1a-methyl-8-methylene-9-oxo-1a,2,3,6,7,7a,8,9,10a, 1b-decahydrooxireno[2′,3′:9,10]cyclodeca[1,2-b]furan-5-yl)methyl)malonate], which EC50 (M9ENL AML cell lines [2]) is on record?
The EC50 was 1 µM.

What about the “cytotoxicity relative to PTL” value (AML cell line AML 123009) of the same molecule?
Its value is “enhanced cytotoxicity relative to PTL”.

What about the EC50 (AML cell line AML 123009) of the same molecule?
Its EC50 is 1 µM.

For `C=C1C(=O)O[C@H]2[C@H]1CC/C(Cn1cc(-c3cccc(-c4cn(C/C5=C/CC[C@@]6(C)O[C@H]6[C@H]6OC(=O)C(=C)[C@@H]6CC5)nn4)c3)nn1)=C\CC[C@@]1(C)O[C@@H]21` [JVM 4-41A], which EC50 (M9ENL AML cell lines [1]) is on record?
The EC50 was 2.3 µM.

Which EC50 (M9ENL AML cell lines [1]) does the source give for `C=C1C(=O)O[C@H]2[C@H]1CC/C(Cn1cc(CNCc3cn(C/C4=C/CC[C@@]5(C)O[C@H]5[C@H]5OC(=O)C(=C)[C@@H]5CC4)nn3)nn1)=C\CC[C@@]1(C)O[C@@H]21` [JVM 4-44] here?
Its EC50 is 51.6 µM.

`C=C1C(=O)O[C@H]2[C@H]1CC/C(Cn1cc(CCCc3cn(C/C4=C/CC[C@@]5(C)O[C@H]5[C@H]5OC(=O)C(=C)[C@@H]5CC4)nn3)nn1)=C\CC[C@@]1(C)O[C@@H]21` [JVM 4-51] was tested. Which EC50 (M9ENL AML cell lines [1]) did it give?
Its EC50 is 4 µM.

Source: patent US10118935B2, “Melampomagnolide B dimers” (priority 2014, dated 2018)
